# Data taken from US8058243B2, “Method for treating a brain cancer with ifenprodil” (HSC Research and Development Limited Partnership, priority 2006, dated 2011).
# Read-outs that look alike come from different tables or passages of the source.
# How the values were obtained:
# [1] = tested on: mouse NSC neurosphere cultures; test: Dose-response curves and EC50, neurosphere MTT proliferation, 7 days; type: cell-based
# NPC colony formation = test: Inhibition of colony formation by bromocriptine with and without (±)-sulpiride; type: cell-based, mouse
# [2] = tested on: Ptch1+/− Trp53−/− medulloblastoma neurosphere cultures; test: Tumor sphere MTT proliferation EC50; type: cell-based, mouse; conditions: read-out: Ptch1+/− Trp53−/− neurosphere EC50
# Text: (§1) Astrocyte Screen and Neurosphere Selectivity Assessment. […] Murine Medulloblastoma Generation and Culture. […] Flow Cytometry. […] Results
# [3] = tested on: ptc1+/− medulloblastoma precursor cells (neurosphere cultures); test: Medulloblastoma tumor sphere MTT proliferation EC50; type: cell-based, mouse
# Text: as §1
# [4] = tested on: murine neural precursor cells (neurosphere cultures); test: HTS of LOPAC library against secondary neurosphere cultures, MTT proliferation assay at 3 μM, day 7 (z score, P value); type: cell-based, mouse
# [5] = tested on: medulloblastoma formation; conditions: mice; cited from earlier work
# [6] = tested on: hGBM1 precursors (WHO grade IV GBM); test: Human glioblastoma precursor EC50 (hGBM1); type: cell-based
# [7] = tested on: hGBM2 precursors (WHO grade IV GBM, giant cell variant); test: Human glioblastoma precursor EC50 (hGBM2); type: cell-based
# [8] = tested on: ptc1+/− tumor cell growth; conditions: cited from earlier work
# [9] = tested on: neural precursors derived from human fetal CNS tissue (hFetal); test: Human fetal neural precursor EC50; type: cell-based
# [10] = tested on: nestin expression in NPCs; test: Flow cytometric analysis of nestin in NPCs; type: cell-based, mouse
# [11] = Table 8, read-out: Neurosphere EC50
# [12] = Mus musculus, read-out: Ptch1+/− neurosphere EC50
# [13] = 168 h, normal mouse neurosphere cultures, MTT, 7 days, read-out: Neurosphere EC50
# [14] = Mus musculus, read-out: EC 50% Neurosphere, Table 5
# [15] = Mus musculus, Table 8, read-out: Neurosphere EC50
# [16] = LOPAC library screen, 3 μM, MTT, secondary neurosphere cultures, day 7
# [17] = LOPAC primary screen, neurosphere MTT proliferation, 3 μM, day 7
# [18] = yes/no: significantly inhibited neurosphere proliferation (P<0.01) in the primary screen
# [19] = Mus musculus, ptc1+/− medulloblastoma derived neurospheres, read-out: Medulloblastoma Neurosphere EC50
# [20] = cultures derived from mouse cerebellar tumor samples, read-out: Ptch1+/− neurosphere EC50
# [21] = normal mouse neurosphere cultures, MTT, 7 days, read-out: Neurosphere EC50
# [22] = read-out: EC 50% Neurosphere, Table 5
# [23] = ptc1+/− medulloblastoma derived neurospheres, read-out: Medulloblastoma Neurosphere EC50
# [24] = cultures derived from mouse cerebellar tumor samples
# [25] = yes = significantly inhibited neurosphere proliferation (P<0.01) in the primary screen
"EC50 [3, 20] [nM]",Molecule,"EC50 [1, 11] [nM]","EC50 [1, 14] [nM]","EC50 [1, 15] [nM]","Z Score [4, 16]","Z score [4, 17]","Activity [4, 18]",further results
,"CC(C)C[C@H]1C(=O)N2CCC[C@H]2[C@]2(O)O[C@](NC(=O)[C@@H]3C=C4c5cccc6[nH]c(Br)c(c56)C[C@H]4N(C)C3)(C(C)C)C(=O)N12 [(+)-Bromocripline (18), (+)-Bromocripline]",1190,,,,,,"EC50 (NPC colony formation; with (±)-sulpiride supplementation, read-out: EC50 of inhibition of colony formation, with sulpiride): 2500 nM; EC50 (NPC colony formation; without sulpiride, read-out: EC50 of inhibition of colony formation, without sulpiride): 1200 nM"
,"C[C@@H]1C[C@@H]([C@H](O)CC2CC(=O)NC(=O)C2)C(=O)[C@@H](C)C1 [Cycloheximide (1), Cycloheximide]",,,,,,,"EC50 ([2]; Mus musculus): 54 nM; EC50 ([3]; Mus musculus, read-out: Medulloblastoma Neurosphere EC50): 42 nM; EC50 [3, 12]: 42 nM"
204,"CC1=C(/C=C/C(C)=C/C=C/C(C)=C/C(=O)Nc2ccc(O)cc2)C(C)(C)CCC1 [Fenretinide (11), Retinoic acid p-hydroxyanilide]",,334,334,−6.013,−6.013,yes,"EC50 [1, 13]: 334 nM; EC50 [3, 19]: 204 nM"
3010,Oc1ccc(-c2nc(-c3ccc(F)cc3)c(-c3ccncc3)[nH]2)cc1 [SB 202190 (13)],8060,,,,,,"EC50 [1, 21]: 8060 nM; EC50 [1, 22]: 8060 nM; Z Score ([4]; LOPAC library screen at 3 μM, secondary neurosphere cultures, MTT): −1.124; Z score ([4]; LOPAC screen, neurosphere MTT proliferation, 3 μM, day 7): −1.124; Activity ([4]; yes/no: significantly inhibited neurosphere proliferation (P<0.01) in primary screen): no; EC50 [3, 23]: 3010 nM"
,O=C(Nc1ccccc1)C12CC1/C(=N\O)c1ccccc1O2 (stereo not shown) [PHCCC],,,,,,,medulloblastoma formation in vivo [5]: attenuate medulloblastoma formation
,"S=C=Nc1cccc(C2(N3CCCCC3)CCCCC2)c1 [Metaphit (35), Metaphit, reference compound]",,10000,10000,,−4.967,yes,Z Score [4]: −4.967
,"CC(=O)O[C@H]1C(=O)[C@@]2(C)[C@H]([C@H](OC(=O)c3ccccc3)[C@]3(O)C[C@H](OC(=O)[C@H](O)[C@@H](NC(=O)c4ccccc4)c4ccccc4)C(C)=C1C3(C)C)[C@]1(OC(C)=O)CO[C@@H]1C[C@@H]2O [Taxol (21), Taxol]",,,10,,,,
,"COc1ccc(CCNC[C@H](O)c2ccc(O)cc2)cc1OC [R(−)-Denopamine (24), R(−)-Denopamine]",39200,,,,,,
,Tyrphoslin AG 34 [Tyrphoslin AG 34 (37)],9920,,,,,,
1520,"COc1cc2ncnc(Nc3ccc(O)cc3)c2cc1OC [WHI-P131 (12), 4-(4′-hydroxylphenyl)-amino-6,7-dimethoxyquinazoline]",,2350,2350,,,,"EC50 [1, 13]: 2350 nM; EC50 [3, 19]: 1520 nM"
,"CC1=C2C[C@H]3[C@@H](CC=C4C[C@@H](O)CC[C@@]43C)[C@@H]2CC[C@]12O[C@@H]1C[C@H](C)CN[C@H]1[C@H]2C [Cyclopamine (16), Cyclopamine]",,,,,,,"EC50 [3, 12]: 1000 nM; reported concentration for inhibition of ptc1+/− tumor cell growth in vitro [8]: 5 µM"
,"CC[C@H](C)C(=O)O[C@H]1CCC=C2C=C[C@H](C)[C@H](CC[C@@H]3C[C@@H](O)CC(=O)O3)[C@H]21 [Mevastatin (20), Mevastatin]",,,142,,,,
,"CCCCCCCCCCC/C=C\C(C)(C)/C=C\CCCC(=O)O [7,7-Dimethyl-(5Z,8Z)-eicosadienoic acid]",5170,,,,−3.045,yes,Z Score [4]: −3.045
,"CN1CCN(c2nc3cc(C(F)(F)F)ccc3n3cccc23)CC1.O=C(O)/C=C\C(=O)O [CGS-12066A (40), reference compound]",2010,,,−2.575,−2.575,,"EC50 [1, 22]: 2010 nM; Activity [4, 25]: yes"
2080,"CCN(CC)CCOCCOC(=O)C1(c2ccccc2)CCCC1 [Carbetapentane (10), Carbetapentane]",,756,756,−8.021,−8.021,yes,"EC50 ([6]; Homo sapiens): 5440 nM; EC50 ([7]; Homo sapiens): 1730 nM; EC50 [1, 13]: 756 nM; EC50 [3, 19]: 2080 nM"
,"CC[C@]1(O)C[C@@H]2CN(CCc3c([nH]c4ccccc34)[C@@](C(=O)OC)(c3cc4c(cc3OC)N(C)[C@H]3[C@@](O)(C(=O)OC)[C@H](OC(C)=O)[C@]5(CC)C=CCN6CC[C@]43[C@@H]65)C2)C1 [Vinblastine(22), Vinblastine]",,,28,,,,
1120,"O[Si](CCCN1CCCCC1)(c1ccc(F)cc1)C1CCCCC1 (stereo not shown) [p-F-HHSiD (8), p-fluoro-hexahydrosila-difenidol]",441,,,,,,"EC50 [6]: 12600 nM; EC50 [7]: 1230 nM; EC50 [2, 24]: 1370 nM; EC50 [1, 21]: 441 nM; EC50 [1, 22]: 441 nM; EC50 [9]: 10600 nM; EC50 [3, 23]: 1120 nM"
,"CC(C)COCC(CN(Cc1ccccc1)c1ccccc1)N1CCCC1 (stereo not shown) [Bepridil (28), Bepridil, reference compound]",,2700,2700,−2.655,−2.655,,"Activity [4, 25]: yes"
,"c1ccc2c(c1)[I+]c1ccccc1-2 [Diphenyleneiodonium (33), Diphenyleneiodonium, reference compound]",,11,11,−10.07,−10.068,,"Activity [4, 25]: yes"
208,"COc1cc([C@@H]2c3cc4c(cc3[C@@H](O[C@@H]3O[C@@H]5CO[C@@H](C)O[C@H]5[C@H](O)[C@H]3O)[C@H]3COC(=O)[C@H]23)OCO4)cc(OC)c1O [Etoposide (2), Etoposide]",,340,340,−11.1,−11.102,yes,"EC50 ([6]; Homo sapiens): 620 nM; EC50 ([7]; Homo sapiens): 270 nM; EC50 [1, 13]: 340 nM; EC50 [9]: 160 nM; EC50 [3, 19]: 208 nM"
187,"Cl.Cl.OCCN1CCN(CC/C=C2/c3ccccc3Sc3ccc(C(F)(F)F)cc32)CC1 [cis-(Z)-Flupenthixol (7), cis-(Z)-Flupenthixol]",199,,,−8.822,−8.822,yes,"EC50 [1, 21]: 199 nM; EC50 [1, 22]: 199 nM; EC50 [3, 23]: 187 nM"
,"CCN1CCCC1CNC(=O)c1cc(S(N)(=O)=O)ccc1OC (racemic) [(±)-sulpride, reference compound]",,,,,−0.284,no,rescue of the inhibitory effects of bromocriptine (NPC colony formation; colony formation and MTT values): able to competitively rescue the inhibitory effects

Molecule,"EC50 [3, 20] [nM]","EC50 [1, 11] [nM]","EC50 [1, 14] [nM]","EC50 [1, 15] [nM]","Z Score [4, 16]","Z score [4, 17]","Activity [4, 18]",further results
"COc1cc(CNC(=O)CCCCCCC(C)C)ccc1O [Dihydrocapsaicin (15), Dihydrocapsaicin]",20,,,,−10,−10.003,yes,"EC50 ([6]; Homo sapiens): 88600 nM; EC50 ([7]; Homo sapiens): 21500 nM; EC50 [3, 19]: 20 nM"
"CC(C)(C)[C@]1(O)CCN2C[C@H]3c4ccccc4CCc4cccc(c43)[C@@H]2C1 (racemic) [(±) Butaclamol (4), (±)-Butaclamol]",751,,785,785,,,,"EC50 [2, 24]: 2530 nM; EC50 [1, 13]: 785 nM; Activity [4]: yes; Z score ([4]; 168 h, 3 µM): −5.934; EC50 [3, 19]: 751 nM"
"N.N.O=C([O-])C1(C(=O)[O-])CCC1.[Pt+2] [Carboplatin (3), Carboplatin]",196,489,,,−6.204,−6.204,,"EC50 [6]: 2040 nM; EC50 [7]: 3300 nM; EC50 [1, 21]: 489 nM; EC50 [1, 22]: 489 nM; EC50 [9]: 430 nM; Activity [4, 25]: yes; EC50 [3, 23]: 196 nM"
"CC(C(O)c1ccc(O)cc1)N1CCC(Cc2ccccc2)CC1 (stereo not shown) [Ifenprodil (9), Ifenprodil]",451,,616,616,−8.904,−8.904,yes,"EC50 ([6]; Homo sapiens): 1990 nM; EC50 ([7]; Homo sapiens): 206 nM; EC50 [2, 24]: 807 nM; nestin negative cells ([10]; 2 d treatment, 5 μM, vehicle 20%): 63%; expression of the immature NPC marker nestin ([10]; treatment for 2 d): substantially decreased; EC50 [1, 13]: 616 nM; EC50 [9]: 420 nM; EC50 [3, 19]: 451 nM"
(R)-(−)-Propylnorapomorphine [(R)-(−)-Propylnorapomorphine (5)],199,351,,,,,,"EC50 [1, 21]: 351 nM; EC50 [1, 22]: 351 nM; Activity [4]: yes; Z Score [4]: −8.274; Z score [4]: −8.274; EC50 ([3]; read-out: Medulloblastoma Neurosphere EC50): 199 nM"
